Experimental data as given in patent US20120034613A1, “Apparatus and Method for Testing Relationships Between Gene Expression and Physical Appearance of Skin” (NSE Products, Inc., priority 2010, published 2012).

Test system: facial skin
Assay: Clinical investigator grading of facial attributes, 9-point ordinal scale, 12 week clinical study
Type: in vivo, human
Conditions: for Cheek Wrinkles clinical grading Mean: Baseline mean 2.41; for Under-Eye Area Wrinkles clinical grading Mean: Baseline mean 3.19; for Crows Feet Wrinkles clinical grading Mean: Baseline mean 3.29; for Face Tactile Roughness/Smoothness clinical grading Mean: Baseline mean 3.48; for Face Fine Lines (Overall) clinical grading Mean: Baseline mean 4.29; for Face Pore Size clinical grading Mean: Baseline mean 4.41; for Face Global Firmness Appearance clinical grading Mean: Baseline mean 5.03; for Face Mottled Pigmentation clinical grading Mean / Face Uneven Skin Tone clinical grading Mean: Baseline mean 5.05; for Face Jawline Contour clinical grading Mean: Baseline mean 5.16; for Face Overall Appearance clinical grading Mean: Baseline mean 5.47; for Face Radiance clinical grading Mean: Baseline mean 5.81
Description: At baseline (Visit 1), each prospective subject completed an Eligibility and Health Questionnaire, and read and signed a Confidentially Agreement, a Photography Release Form and an Informed Consent Agreement. Each subject was explained the type of study, the detailed procedures and materials to be tested, along with any known adverse reactions that may result from participation. Subjects arrived at the clinic having refrained from applying any moisturizer to the face at least 3 to 5 days prior to visit and having cleansed the face to remove all makeup at least 30 minutes prior to visit. Subjects were consequently not allowed to use any other topical cosmeceuticals, topical retinoid, or moisturizers during the 12 week duration of the study. Subjects used the study product on their face twice daily for 12 weeks. Ordinal grading on a 9-point scale (0=none, 1-3=mild, 4-6=moderate, 7-9=severe) of facial fine lines, mottled pigmentation, uneven skin tone, tactile roughness, global firmness appearance, jaw-line contour, radiance and overall appearance was performed by investigator at baseline, week 1, week 4, week 8 and week 12. Digital high-resolution photography was performed on the front, right and left sides of the face. Each image was taken while the subject's eyes were open. Each subject's baseline photograph was compared to each post-baseline photograph to ensure consistent placement and lighting. Color standards were imaged prior to each study visit. All clinical and corneometer measurements and evaluations were taken at baseline, week 1 (visit 2), week 4 (visit 3), week 8 (visit 4) and week 12 (visit 5). Ultrasound and cutometer measurements and evaluations were taken at baseline, week 4 (visit 3), week 8 (visit 4) and week 12 (visit 5). Completed patient's diaries were reviewed for compliance at each visit. Mean clinical grading and instrumentation scores at each visit were statistically compared to baseline scores using paired t-test. Changes from baseline were considered significant at the p≦0.05 level. Mean percent change from baseline and incidence of positive responders were calculated for all attributes. Comparisons, based on the average from baseline, were made between the test materials using analysis of variance (ANOVA).

OCc1ccccc1O[C@@H]1O[C@H](CO)[C@@H](O)[C@H](O)[C@H]1O [Salicin, 2-(Hydroxymethyl)phenyl β-D-glucospyranoside]
Cheek Wrinkles clinical grading Mean (Week 1): 2.29
Under-Eye Area Wrinkles clinical grading Mean (Week 1): 3.07
Crows Feet Wrinkles clinical grading Mean (Week 1): 3.21
Face Tactile Roughness/Smoothness clinical grading Mean (Week 1): 2.41
Face Fine Lines (Overall) clinical grading Mean (Week 1): 4.14
Face Pore Size clinical grading Mean (Week 1): 4.30
Face Global Firmness Appearance clinical grading Mean (Week 1): 5.04
Face Mottled Pigmentation clinical grading Mean (Week 1): 5.05
Face Uneven Skin Tone clinical grading Mean (Week 1): 5.05
Face Jawline Contour clinical grading Mean (Week 1): 5.14
Face Overall Appearance clinical grading Mean (Week 1): 5.21
Face Radiance clinical grading Mean (Week 1): 5.20
Cheek Wrinkles clinical grading % Change (Week 1 vs Baseline): (−1.5%)
Crows Feet Wrinkles clinical grading % Change (Week 1 vs Baseline): (−0.5%)
Face Fine Lines (Overall) clinical grading % Change (Week 1 vs Baseline): (−3.7%)
Face Global Firmness Appearance clinical grading % Change (Week 1 vs Baseline): (0.3%)
Face Jawline Contour clinical grading % Change (Week 1 vs Baseline): (0.0%)
Face Mottled Pigmentation clinical grading % Change (Week 1 vs Baseline): (−0.7%)
Face Overall Appearance clinical grading % Change (Week 1 vs Baseline): (−4.2%)
Face Pore Size clinical grading % Change (Week 1 vs Baseline): (−2.4%)
Face Radiance clinical grading % Change (Week 1 vs Baseline): (−11.0%)
Face Tactile Roughness/Smoothness clinical grading % Change (Week 1 vs Baseline): (−30.7%)
Face Uneven Skin Tone clinical grading % Change (Week 1 vs Baseline): (−0.7%)
Under-Eye Area Wrinkles clinical grading % Change (Week 1 vs Baseline): (−1.7%)
Cheek Wrinkles clinical grading Mean (Week 4): 2.26
Under-Eye Area Wrinkles clinical grading Mean (Week 4): 2.79
Crows Feet Wrinkles clinical grading Mean (Week 4): 3.00
Face Tactile Roughness/Smoothness clinical grading Mean (Week 4): 2.02
Face Fine Lines (Overall) clinical grading Mean (Week 4): 3.76
Face Pore Size clinical grading Mean (Week 4): 4.05
Face Global Firmness Appearance clinical grading Mean (Week 4): 4.86
Face Mottled Pigmentation clinical grading Mean (Week 4): 4.74
Face Uneven Skin Tone clinical grading Mean (Week 4): 4.74
Face Jawline Contour clinical grading Mean (Week 4): 5.10
Face Overall Appearance clinical grading Mean (Week 4): 4.91
Face Radiance clinical grading Mean (Week 4): 4.90
Cheek Wrinkles clinical grading % Change (Week 4 vs Baseline): (−6.4%)
Crows Feet Wrinkles clinical grading % Change (Week 4 vs Baseline): (−8.9%)
Face Fine Lines (Overall) clinical grading % Change (Week 4 vs Baseline): (−12.4%)
Face Global Firmness Appearance clinical grading % Change (Week 4 vs Baseline): (−3.4%)
Face Jawline Contour clinical grading % Change (Week 4 vs Baseline): (−1.0%)
Face Mottled Pigmentation clinical grading % Change (Week 4 vs Baseline): (−6.1%)
Face Overall Appearance clinical grading % Change (Week 4 vs Baseline): (−10.0%)
Face Pore Size clinical grading % Change (Week 4 vs Baseline): (−8.2%)
Face Radiance clinical grading % Change (Week 4 vs Baseline): (−15.7%)
Face Tactile Roughness/Smoothness clinical grading % Change (Week 4 vs Baseline): (−42.0%)
Face Uneven Skin Tone clinical grading % Change (Week 4 vs Baseline): (−6.1%)
Under-Eye Area Wrinkles clinical grading % Change (Week 4 vs Baseline): (−12.4%)
Cheek Wrinkles clinical grading Mean (Week 8): 2.12
Under-Eye Area Wrinkles clinical grading Mean (Week 8): 2.55
Crows Feet Wrinkles clinical grading Mean (Week 8): 2.71
Face Tactile Roughness/Smoothness clinical grading Mean (Week 8): 1.43
Face Fine Lines (Overall) clinical grading Mean (Week 8): 3.47
Face Pore Size clinical grading Mean (Week 8): 3.86
Face Global Firmness Appearance clinical grading Mean (Week 8): 4.64
Face Mottled Pigmentation clinical grading Mean (Week 8): 4.57
Face Uneven Skin Tone clinical grading Mean (Week 8): 4.57
Face Jawline Contour clinical grading Mean (Week 8): 4.95
Face Overall Appearance clinical grading Mean (Week 8): 4.67
Face Radiance clinical grading Mean (Week 8): 4.72
Cheek Wrinkles clinical grading % Change (Week 8 vs Baseline): (−12.1%)
Crows Feet Wrinkles clinical grading % Change (Week 8 vs Baseline): (−17.8%)
Face Fine Lines (Overall) clinical grading % Change (Week 8 vs Baseline): (−19.2%)
Face Global Firmness Appearance clinical grading % Change (Week 8 vs Baseline): (−7.8%)
Face Jawline Contour clinical grading % Change (Week 8 vs Baseline): (−4.0%)
Face Mottled Pigmentation clinical grading % Change (Week 8 vs Baseline): (−9.5%)
Face Overall Appearance clinical grading % Change (Week 8 vs Baseline): (−14.5%)
Face Pore Size clinical grading % Change (Week 8 vs Baseline): (−12.5%)
Face Radiance clinical grading % Change (Week 8 vs Baseline): (−18.6%)
Face Tactile Roughness/Smoothness clinical grading % Change (Week 8 vs Baseline): (−58.9%)
Face Uneven Skin Tone clinical grading % Change (Week 8 vs Baseline): (−9.5%)
Under-Eye Area Wrinkles clinical grading % Change (Week 8 vs Baseline): (−20.0%)
Cheek Wrinkles clinical grading Mean (Week 12): 2.02
Under-Eye Area Wrinkles clinical grading Mean (Week 12): 2.24
Crows Feet Wrinkles clinical grading Mean (Week 12): 2.48
Face Tactile Roughness/Smoothness clinical grading Mean (Week 12): 0.98
Face Fine Lines (Overall) clinical grading Mean (Week 12): 3.10
Face Pore Size clinical grading Mean (Week 12): 3.71
Face Global Firmness Appearance clinical grading Mean (Week 12): 4.48
Face Mottled Pigmentation clinical grading Mean (Week 12): 4.33
Face Uneven Skin Tone clinical grading Mean (Week 12): 4.34
Face Jawline Contour clinical grading Mean (Week 12): 4.74
Face Overall Appearance clinical grading Mean (Week 12): 4.50
Face Radiance clinical grading Mean (Week 12): 4.59
Cheek Wrinkles clinical grading % Change (Week 12 vs Baseline): (−16.4%)
Crows Feet Wrinkles clinical grading % Change (Week 12 vs Baseline): (−24.6%)
Face Fine Lines (Overall) clinical grading % Change (Week 12 vs Baseline): (−27.7%)
Face Global Firmness Appearance clinical grading % Change (Week 12 vs Baseline): (−10.9%)
Face Jawline Contour clinical grading % Change (Week 12 vs Baseline): (−8.0%)
Face Mottled Pigmentation clinical grading % Change (Week 12 vs Baseline): (−14.3%)
Face Overall Appearance clinical grading % Change (Week 12 vs Baseline): (−17.6%)
Face Pore Size clinical grading % Change (Week 12 vs Baseline): (−16.0%)
Face Radiance clinical grading % Change (Week 12 vs Baseline): (−21.0%)
Face Tactile Roughness/Smoothness clinical grading % Change (Week 12 vs Baseline): (−71.7%)
Face Uneven Skin Tone clinical grading % Change (Week 12 vs Baseline): (−13.9%)
Under-Eye Area Wrinkles clinical grading % Change (Week 12 vs Baseline): (−29.7%)
